Assay results taken from PubChem BioAssay AID2423 (Broad Institute, 2010).
pEC50: −log10 of the molar value. Records with an inconclusive call do not appear. Calls of active or inactive are those of the source. The rule behind the calls is not given here.

These molecules were tested on C. albicans CaCi-8 + fluconazole, Alamar Blue growth, 48 h (assay: resistant C. albicans growth inhibition with fluconazole, dose response, CaCi-8 strain, Alamar Blue fluorescence (AID 2423)).

Row | Structure (SMILES) | pEC50 | EC50
1 | CSc1ccc(C2c3[nH]c4ccccc4c3CCN2C(=O)c2ccnn2C)cc1 (stereo not drawn) | 5.63 | –
2 | C(C#CCCCCCCCCC[n+]1ccccc1)#CCCCCCCCCC[n+]1ccccc1 | 5.45 | –
3 | CN(C)CCCNc1cc(C(C)(C)C)nc2c(-c3ccc(Cl)cc3)cnn12 | 5.28 | –
4 | COc1cnc(-c2ccccn2)nc1NC(C)C | – | > 15000 nM (inactive)
5 | Cc1cc(C)c2ccc(N)nc2c1O | 4.85 | –
6 | N#C/C(=C(/O)c1ccco1)c1nc2ccccc2[nH]1 | 6.17 | –
7 | CCCCC(=O)NC(c1ccccc1)c1ccc2cccnc2c1O (stereo not drawn) | 6.12 | –
8 | Cc1ccc(NC(=O)NNC(=O)c2cc3ccccc3cc2O)c(C)c1 | – | > 15000 nM (inactive)
9 | O=[N+]([O-])c1ccc2c(c1)[nH]c(=S)n2-c1ccccc1 | 6.19 | –
10 | O=Nc1c(O)n(Cc2ccc(Cl)c(Cl)c2)c2ccccc12 | 5.23 | –
11 | CC(C)(C)C1CCC(OC(=O)C[N+]2(C)CCCCC2)CC1 (stereo not drawn) | 4.95 | –
12 | COC(=O)C1=NN(C(=O)c2ccc(Cl)cc2)C(O)(c2ccccc2)C1 (stereo not drawn) | – | > 16000 nM (inactive)
13 | O=C(Nc1nnc(-c2ccncc2)o1)c1ccc2ccccc2c1 | 5.84 | –
14 | O=C(Oc1cc2oc(=O)cc(-c3ccccc3)c2cc1Cl)C1CCCCC1 | 5.92 | –
15 | Cc1cc(NC(c2ccc(Cl)cc2)c2ccc3cccnc3c2O)no1 (stereo not drawn) | 6.22 | –
16 | CNC(=S)N/N=C/c1ccc(-c2ccc(Cl)c([N+](=O)[O-])c2)o1 | 5.71 | –
17 | Cn1c(N2CCOCC2)c(/C=N/OC(=O)c2ccc(F)cc2)c2ccccc21 | 6.20 | –
18 | CCCC(=O)NC(c1ccc(OC)cc1)c1ccc2cccnc2c1O (stereo not drawn) | 6.05 | –
19 | CCOC(=O)Cc1csc(NC(=O)CSc2nnc(-c3ccc(NS(=O)(=O)CC)cc3)o2)n1 | 6.82 | –
20 | COc1cccc(/C=N/NC(=O)c2c(C)nc3ccc(Br)cn23)c1O | 6.19 | –
21 | CC(=O)Nc1ccc(N2CC(C)(C)C2=O)cc1 | – | > 15000 nM (inactive)
22 | CCN(CC)c1ccc(/C=N/Nc2nc3ccccc3[nH]2)cc1 | 6.06 | –

Row | Structure (SMILES) | pEC50 | EC50
23 | Cc1ccc(C(C)C)c(OCc2ccc(C(=O)N/N=C/c3cccc(O)c3O)cc2)c1 | 6.10 | –
24 | Cc1[nH]n(C(N)=S)c(=O)c1N=Nc1ccc(S(=O)(=O)N2CCCCCC2)cc1 | 5.02 | –
25 | CCCCOP(=O)(c1ccc(N(C)C)cc1)C(O)c1ccccc1F (stereo not drawn) | 5.33 | –
26 | Oc1c(CN2CCOCC2)cc(COCc2ccccc2)c2cccnc12 | 6.02 | –
27 | Cc1ccc(S(=O)(=O)C(C#N)c2nc3ccccc3nc2N2CCN(C)CC2)cc1C (stereo not drawn) | 4.80 | –
28 | CCCCCCCNC(=O)COc1ccc2c(c1)C(=O)CC(C)(C)O2 | 5.96 | –
29 | CCOc1ccc(Nc2nc(NCC3CCCO3)c3ccccc3n2)cc1 (stereo not drawn) | 5.70 | –
30 | COc1cc(C2C(C#N)=C(N)N(c3ccc(F)cc3)C3=C2S(=O)(=O)CC3)ccc1O (stereo not drawn) | – | > 16000 nM (inactive)
31 | CN1CCN(C(c2cccnc2)c2ccc3cccnc3c2O)CC1 (stereo not drawn) | – | > 16000 nM (inactive)
32 | O=C(c1ccc(C(=O)N2CCCc3ccccc32)s1)N1CCCc2ccccc21 | 5.52 | –
33 | C/C(=N\NC(=O)c1cc(-c2cccs2)nc2ccccc12)c1ccccn1 | 5.74 | –
34 | Cc1cccc(Sc2nc(-c3ccccc3)ncc2C(=O)O)c1 | – | > 15000 nM (inactive)
35 | CN1CCN(C(=O)c2cnn(-c3ccccc3)c2NC(=O)c2ccccc2)CC1 | – | > 15000 nM (inactive)
36 | Cc1cccc(-n2c(SCc3cc(=O)n4ccsc4n3)nc3ccccc32)c1 | – | > 15000 nM (inactive)
37 | Cc1ccc(S(=O)(=O)CCC(=O)Nc2nc(-c3ccncc3)cs2)cc1 | 5.67 | –
38 | Cn1c(-c2c(N)n(CCc3ccccc3)c3nc4ccccc4nc23)nc2ccccc21 | 5.21 | –
39 | CCCOc1cccc(C(=O)N/N=C/c2coc3ccccc3c2=O)c1 | – | > 15000 nM (inactive)
40 | C[N+]1(CC(=O)OC2CCCCCCCCCCC2)CCCC1 | 5.31 | –
41 | COc1ccc(-c2cc(N)n(S(=O)(=O)c3c(F)c(F)c(F)c(F)c3F)n2)cc1OC | – | > 16000 nM (inactive)
42 | CC(=O)NC(c1ccccc1)c1cc(Cl)c2cccnc2c1O (stereo not drawn) | 6.12 | –
43 | Cn1c(/C=N/Nc2nc3ccccc3[nH]2)nc2ccccc21 | – | > 16000 nM (inactive)
44 | O=C(NCCNC(=O)C(c1ccccc1)c1ccccc1)c1ccco1 | – | > 15000 nM (inactive)

Row | Structure (SMILES) | pEC50 | EC50
45 | O=C(NNC(=S)Nc1ccc(Cl)cc1)c1ccccc1OC(F)F | 5.58 | –
46 | COc1ccc(-c2c[n+]3c(n2-c2ccccc2)CCCCC3)cc1 | 5.02 | –
47 | COCC(=O)Nc1nc2n(n1)C(c1ccccc1Cl)CC(c1ccc(OC)cc1)N2 (stereo not drawn) | – | > 16000 nM (inactive)
48 | CCN1/C(=C/c2ccc3cccc(C)c3[n+]2CC)Sc2ccccc21 | > 6.92 | –
49 | CSCCC1NC2(C(=O)Nc3c(C)cc(Cl)cc32)[C@@H]2C(=O)N(C3CCCC3)C(=O)[C@H]12 (stereo partly drawn) | 5.00 | –
50 | CCC(=O)NC(c1ccccc1OC)c1ccc2cccnc2c1O (stereo not drawn) | 6.00 | –
51 | COc1ccc(C(=O)NC(=S)NNC(=O)c2ccccc2C)cc1 | 5.70 | –
52 | CC(=O)Nc1ccc(NC(=O)CSc2ccc3nnc(CCNS(=O)(=O)c4ccc(C)cc4)n3n2)cc1 | – | > 16000 nM (inactive)
53 | Cc1nnc(NC(=O)c2ccc(S(=O)(=O)N(C)Cc3ccccc3)cc2)o1 | 6.09 | –
54 | CN1/C(=C/C(=O)c2cccs2)Sc2ccccc21 | 6.08 | –
55 | CCCc1ccc(/C=C2\C(=O)c3ccccc3C(O)=C2C(=O)OCC)cc1 | – | > 15000 nM (inactive)
56 | O=C1C=C(NCc2ccccc2)c2ccccc2C1=O | 5.73 | –
57 | O=C(ONC1=NCCCCC1)c1cccc([N+](=O)[O-])c1 | 6.01 | –
58 | CCCCC(=O)NC(=S)Nc1cccc(NC(=O)c2ccco2)c1 | 5.91 | –
59 | C=CCNC(=S)N/N=C(\C)c1ccccn1 | 5.64 | –
60 | CCOC(=O)c1ccc(NC(=O)c2ccc(CO)c(C(=O)NC3CCN(C(=O)OCC)CC3)c2)cc1 | – | > 16000 nM (inactive)
61 | Cc1ccc(-n2c(Cc3ccccc3)n[nH]c2=S)c(C)c1 | 6.10 | –
62 | CCOc1ccc(NC(=O)c2cn(-c3ccc(OCC)cc3)c(=O)c3cc(OC)c(OC)cc23)cc1 | 6.31 | –
63 | O=C(c1cc2ccccc2cc1O)N1CCN(c2ccccc2O)CC1 | 6.68 | –
64 | Cc1ccc(SCCC(=O)N/N=C/c2ccccc2O)cc1 | 4.86 | –
65 | CS/C(=N\S(=O)(=O)c1cccs1)Nc1ccc(Br)cc1F | 6.10 | –
66 | N#C/C(=C\c1ccc(N2CCOCC2)cc1)c1ccccc1 | 6.31 | –

Row | Structure (SMILES) | pEC50 | EC50
67 | Nc1nonc1-n1nnc(C(=O)N/N=C/c2cc(Br)ccc2O)c1CSC1=NCCS1 | 6.44 | –
68 | O=c1c2ccccc2nc(/C=C/c2ccc([N+](=O)[O-])o2)n1CCCO | 6.82 | –
69 | O=CNCCCc1nc2ccccc2n1Cc1cccc2ccccc12 | 5.45 | –
70 | O=C(Nc1cccc(-c2nc3ccccc3s2)c1)c1cc(-n2cnnc2)ccc1Cl | 5.82 | –
71 | CCOC(=O)c1c(-c2ccccc2)oc2cc(Br)c(O)c(C=O)c12 | 5.84 | –
72 | Cc1c(OCC(=O)NCC(O)c2ccccc2)ccc2c(-c3ccccc3)cc(=O)oc12 (stereo not drawn) | 5.90 | –
73 | COC(=O)[C@@H]1CCCN1Cc1nc(Cc2ccccc2F)no1 | – | > 16000 nM (inactive)
74 | N/C(Cc1ccccc1)=N\OC(=O)c1cccc2ccccc12 | 5.86 | –
75 | Cc1onc(-c2c(Cl)cccc2Cl)c1C(=O)N/N=C(\N)COc1ccc(Cl)cc1 | 5.77 | –
76 | O=C(O)COc1ccccc1C(Nc1cccnc1)c1cc(Cl)c2cccnc2c1O (stereo not drawn) | 5.00 | –
77 | Oc1cccc(Nc2ncnc3c2oc2ccccc23)c1 | 5.18 | –
78 | CCCCC(=O)NC(c1ccc(N(CC)CC)cc1)c1ccc2cccnc2c1O (stereo not drawn) | 6.33 | –
79 | O=c1[nH]c(Nc2ccc3c(c2)OCCO3)nnc1Cc1ccccc1 | – | > 16000 nM (inactive)
80 | O=C(CN1C(=O)/C(=C/c2ccccc2)SC1=S)NNC(=O)c1ccccc1O | – | > 16000 nM (inactive)
81 | Cc1ccc(C)c(N=Nc2ccc(O)c3ncccc23)c1 | 6.15 | –
82 | COc1cc(NC(=O)c2ccccc2NS(=O)(=O)c2ccc(Cl)s2)cc(OC)c1 | – | > 16000 nM (inactive)
83 | Cc1ccc(NS(=O)(=O)c2ccc(CCC(=O)NCCO)cc2)cc1 | – | > 15000 nM (inactive)
84 | O=Cc1cc(N=Nc2ccccc2Cl)ccc1O | 5.19 | –
85 | O=S(=O)(O)c1cc(O)c2c(O)c(N=Nc3cc(Cl)ccc3O)c(S(=O)(=O)O)cc2c1 | 5.12 | –
86 | O=S(=O)(O)c1cccc2c(N=Nc3ccc(O)c4ncccc34)cccc12 | – | > 16000 nM (inactive)
87 | Cc1cc(C(=O)NNC(=S)NC(C)c2ccccc2)c2ccccc2n1 (stereo not drawn) | 5.51 | –
88 | CC(C)CCOC(=O)C[N+](C)(C)CCOC1CC2CCC1(C)C2(C)C (stereo not drawn) | 5.52 | –

Row | Structure (SMILES) | pEC50 | EC50
89 | CC12CCC(C(=O)N(NC(=O)c3ccccc3O)C1=O)C2(C)C (stereo not drawn) | 4.86 | –
90 | CCN1/C(=C/c2ccc3cc(C)ccc3[n+]2CC)Sc2ccc3sccc3c21 | > 6.92 | –
91 | NC(N)=N/N=C/c1ccc(N(c2ccccc2)c2ccccc2)cc1 | – | > 15000 nM (inactive)
92 | COc1ccc(-n2c(=O)c3c4c(sc3n3c(=S)[nH]nc23)CCCC4)cc1 | 6.13 | –
93 | CCOC(=O)C1CCCN(c2cc(C)nc3cc(-c4ccc(F)cc4)nn23)C1 (stereo not drawn) | – | > 16000 nM (inactive)
94 | O=C(Cc1ccc(Cl)cc1)NNC(=S)NC(=O)c1cccs1 | 5.80 | –
95 | COc1cccc2sc(=NC(=O)CS(=O)(=O)c3ccc(Cl)cc3)n(C)c12 | 5.19 | –
96 | CCC(C)n1cnc2c(c1=O)c1nc3ccccc3nc1n2Cc1ccc(OC)cc1 (stereo not drawn) | 6.21 | –
97 | Cc1ccc(-c2nc3ccc(Cl)cc3c(=O)n2O)cc1 | 5.67 | –
98 | Cc1ccccc1-n1c(=O)c(C#N)cc2c(=O)n3ccccc3nc21 | – | > 16000 nM (inactive)
99 | O=C(CSCc1cccc(CSCC(=O)Nc2ccccc2)n1)Nc1ccccc1 | – | > 15000 nM (inactive)
100 | O=C(COc1ccccc1)NNC(=S)NC(=O)c1ccc(Cl)cc1Cl | 5.31 | –
101 | C=CC[C@@H]1C=C(C)C[C@H](C)C[C@H](OC)[C@H]2O[C@@](O)(C(=O)C(=O)N3CCCC[C@H]3C(=O)O[C@H](/C(C)=C/[C@@H]3CC[C@@H](O)[C@H](OC)C3)[C@H](C)[C@@H](O)CC1=O)[C@H](C)C[C@@H]2OC | > 6.92 | –
102 | O=C(CCS(=O)(=O)c1cccc2nsnc12)N1CCN(C(=O)c2ccco2)CC1 | – | > 16000 nM (inactive)
103 | Cc1nc2ccccc2cc1OCc1ccccc1 | 5.79 | –
104 | O=C(CC(=O)c1cccc([N+](=O)[O-])c1)Nc1ccccc1Cl | 6.02 | –
105 | CCCCn1c(=O)[nH]c(=O)c2c1nc(-c1ccc(-c3ccccc3Br)o1)n2CC | – | > 15000 nM (inactive)
106 | CN1CCN(C(c2ccc(C(F)(F)F)cc2)c2cc(Cl)c3cccnc3c2O)CC1 (stereo not drawn) | 6.10 | –
107 | COC(=O)Cn1nc(-c2ccccc2)c2ccccc21 | 5.64 | –
108 | Cc1cccc(N2CCc3c2nc2ccc(Br)cc2c3N)c1 | 5.79 | –
